In patent US8895695B2, “Template-fixed beta-hairpin peptidomimetics with CXCR4 antagonizing activity” (priority 2003, dated 2014):

Tests used:
[1] = test system: 'CCR5' cells / Hut/4-3 cells co-cultivation; assay: FIGS-Assay; type: cell-based; details: 200 nM peptide, 48 hours of co-cultivation
Description: The assay was performed according to ref. 5, below. Stock dilutions of the peptides (10 mM) were prepared by dissolving in 10 mM Tris-HCl at room temperature. Stock solutions were kept at +4° C., light protected. Working dilutions were prepared extemporaneously by serial dilution in Phosphate Buffered Saline (PBS) and added in a final volume of 10 μl directly to the cell cultures. After 48 hours of co-cultivation the cultures were rinsed with PBS and then exposed to glutaraldehyde/formaldehyde (0.2%/2%) in PBS for five minutes. For photometric quantification the fixed cultures were subsequently incubated with ortho-nitro-phenyl-galactopyranoside (ONPG) as a β-galactosidase substrate, which was enzymatically converted into the chromophore ortho-nitrophenol (ONP). The read out is directly obtained by measuring optical density of wells at 405 nm in an iEMS 96well-plate reader.
(§1) All fine chemicals came from Merck (Darmstadt, Germany).

[2] = test system: CCRF-CEM cells; assay: Chemotactic assay (cell migration assay); type: cell-based; details: 1 nM SDF-1, 4 hours
Description: as §1
2.7. Chemotactic Assay (Cell Migration Assay)
The chemotactic response of CCRF-CEM cells to a gradient of stromal cell-derived factor 1α (SDF-1) was measured using disposable assay plates from Neuroprobe (5μ pore size) (Gaithersburg, Md.), according to the manufacturer's directions and references therein [especially ref. 8, below]. Briefly, one 175 cm^2 flask was washed once with Dubecco's phosphate buffered saline (DPBS), and trypsinized for 10 minutes or until cells had lifted. The trypsin was neutralized by the addition of fresh medium containing serum and the cells were pelleted, washed once in DPBS, and resuspended at 1-0.5×10^7 cells/ml in RPMI+0.5% bovine serum albumin (BSA). 45 μl of cell suspension were mixed with 5 μl of 10-fold concentrated PEM peptide diluted in the same assay medium. […] The optical absorbance at 595 nm (ABS595) was read using a Tecan Genios plate reader with Magellan software. The number of cells migrated was determined by comparing ABS595 values against a standard curve generated with a known number of cells in the assay plate and were plotted against SDF-1 concentration to obtain a sigmoidal curve and to determine the IC50 values. The values for IC50 were determined using the Trendline function in Microsoft Excel by fitting a logarithmic curve to the averaged datapoints.

[3] = Pharmacokinetic study (PK) after single i.v. and i.p. administration; type: in vivo, male CD-1 mice
Description: 2.9. Pharmacokinetic Study (PK)
30 grams (±20%) male CD-1 mice obtained from Charles River Laboratories Deutschland GmbH were used in the study. The vehicle, physiological saline, was added to give a final concentration of 1 mg/ml of the compounds. […] Approximately 250-300 μl of blood was removed under light isoflurane anesthesia from the retro-orbital plexus at predetermined time intervals (0, 5, 15, 30 min and 1, 2 and 3 hours for the i.v. study and 0, 15, 30 min and 1, 2, 4 and 8 hours for the i.p. study) and added to heparinized tubes. Plasma was removed from pelleted cells upon centrifugation and frozen at −80° C. prior to HPLC-MS analysis.
Preparation of the Plasma Calibration Samples
“Blank” mouse plasma from untreated animals was used. […] The OASIS® HLB cartridges were conditioned with 1 ml of methanol and then with 1 ml of 1% NH3 in water. Samples were then diluted with 700 μl of 1% NH3 in water and loaded.
The plate was washed with 1 ml of methanol/1% NH3 in water 5/95. Elution was performed using 1 ml of 0.1% TFA in methanol.
The plate containing eluates was introduced into the concentrator system and taken to dryness. The residues were dissolved in 100 μL of formic acid 0.1%/acetonitrile, 95/5 (v/v) and analysed in the HPLC/MS on a reverse phase analytical column (Jupiter C18, 50×2.0 mm, 5 μm, Phenomenex), using gradient elution (mobile phases A: 0.1% formic acid in water, B: Acetonitrile; from 5% B to 100% B in 2 min.).
Preparation of Plasma Samples
Samples coming from animal treatments were pooled in order to obtain an appropriate volume for the extraction. If the total volume obtained was less than 0.2 ml the appropriate amount of “blank” mouse plasma was added in order to keep the matrix identical to the calibration curve. Samples were than spiked with IS and processed as described for the calibration curve.
Pharmacokinetic Evaluation
PK analysis was performed on pooled data (generally n=2 or 3) using the software PK solutions 2.0™ (Summit Research Service, Montrose, Colo. 81401 USA). The area under the curve AUC was calculated by the linear trapezoidal rule. AUC(t-∞) was estimated as Ct/b (b: elimination rate constant). […] the sum of AUC(0-t) and AUC(t-∞). Elimination half-life was calculated by the linear regression on at least three data points during the elimination phase. The time intervals selected for the half-life determinations were evaluated by the correlation coefficient (r^2), which should be at least above 0.85 and most optimally above 0.96. In case of i.v. administration the initial concentration at tzero was determined by extrapolation of the curve through the first two time points. Finally bioavailability after i.p. administration was calculated from the normalised AUC(0-∞) ration after i.p. versus i.v. administration.

[4] = Cytotoxicity assay (MTT reduction), HELA cells; details: human, HELA cells (Acc57);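 note: MTT reduction read as absorbance at 595 nm, blank-corrected and expressed as percent growth relative to the time-zero cell reading, triplicate wells per concentration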
[5] = male, CD-1, mouse, in vivo, ip, 10 mg/kg
[6] = male, CD-1, mouse, in vivo, iv, 2 mg/kg

In the case of N=C(N)NCCC[C@@H]1NC(=O)[C@@H]2CSSC[C@H](NC(=O)[C@H](Cc3ccc4ccccc4c3)NC(=O)[C@H](CCCNC(=N)N)NC(=O)[C@H](CCCNC(=N)N)NC(=O)[C@H]3CCCN3C(=O)CNC1=O)C(=O)N[C@@H](Cc1ccc(O)cc1)C(=O)N[C@@H](CCCNC(N)=O)C(=O)N[C@@H](CCCCN)C(=O)N1CCC[C@@H]1C(=O)N1CCC[C@H]1C(=O)N[C@@H](Cc1ccc(O)cc1)C(=O)N[C@@H](CCCNC(=N)N)C(=O)N[C@@H](CCCNC(N)=O)C(=O)N2 [Ex. 51], the “FIGS % inhibition at 200 nM” value [1] is reported as 93.9%, the IC50 [2] is reported as 0.275 µM and the “times lower normalised Cmax after i.p. administration versus i.v.” value ([3]; i.p. 10 mg/kg versus i.v. 2 mg/kg, mouse) is reported as 45 times. It also gave an AUC [3, 5] of 1300 ng·h/mL, an AUC(0-inf) [3, 5] of 12900 ng·h/mL and an AUC(0-t) [3, 5] of 11100 ng·h/mL. The Tmax [3, 5] was 2 h, the half-life [3, 5] was 2.5 h and the level at 0.25 h [3, 5] was 673 ng/mL. It also gave a level at 0.5 h [3, 5] of 1570 ng/mL, a level at 1 h [3, 5] of 2010 ng/mL and a level at 2 h [3, 5] of 3160 ng/mL. For the same compound, the level at 4 h [3, 5] was 1020 ng/mL, the level at 8 h [3, 5] was 519 ng/mL and the Cmax ([3]; male, CD-1, mouse, in vivo, ip, 10 mg/kg, Cmax ng/ml) was 3160 ng/mL. For the same compound, the Cmax ([3]; male, CD-1, mouse, in vivo, ip, 10 mg/kg, Cmax norm.) was 316 ng/mL, the AUC [3, 6] was 953 ng·h/mL and the AUC(0-inf) [3, 6] was 1900 ng·h/mL. The AUC(0-t) [3, 6] was 1700 ng·h/mL, the Tmax [3, 6] was 0 h and the half-life [3, 6] was 2.8 h. The level at 0.083 h [3, 6] was 1460 ng/mL, the level at 0.25 h [3, 6] was 328 ng/mL and the level at 0.5 h [3, 6] was 300 ng/mL. It also gave a level at 1 h [3, 6] of 80 ng/mL, a level at 2 h [3, 6] of 68 ng/mL and a level at 3 h [3, 6] of 49 ng/mL. For the same compound, the Cmax ([3]; male, CD-1, mouse, in vivo, iv, 2 mg/kg, Cmax ng/ml (extrapolated Cinitial)) was 28600 ng/mL, the Cmax ([3]; male, CD-1, mouse, in vivo, iv, 2 mg/kg, Cmax observed) was 1460 ng/mL and the “% absorbed (F) (percentage of normalized AUC0-inf. intraperitoneal against normalized AUC0-inf i.v.)” value ([3]; mouse, in vivo, 2 mg/kg) was 100%. For the same compound, the “% absorbed (F) (percentage of normalized AUC0-inf. intraperitoneal against normalized AUC0-inf i.v.)” value ([3]; mouse, in vivo, 10 mg/kg) was 136%, the “β” value ([3]; mouse, in vivo, ip, 10 mg/kg) was 0.28 h⁻¹ and the “β” value ([3]; mouse, in vivo, iv, 2 mg/kg) was 0.24 h⁻¹. It also gave a CC50 at 48 h [4] of 97 µM.
